{"source": "patent US20220117972A1", "about": "“USE OF PPAR-DELTA AGONISTS IN THE TREATMENT OF MITOCHONDRIAL MYOPATHY” (Reneo Pharmaceuticals, Inc., priority 2019, published 2022)", "key": {"hPPARδ": {"target": "T1, hPPARδ (Homo sapiens, UniProt Q03181)", "T1 construct": "expressed in transfected cells; host or cells: Jump-In GripTite HEK293", "T1 sequence (Q03181 211-439 limits assumed)": "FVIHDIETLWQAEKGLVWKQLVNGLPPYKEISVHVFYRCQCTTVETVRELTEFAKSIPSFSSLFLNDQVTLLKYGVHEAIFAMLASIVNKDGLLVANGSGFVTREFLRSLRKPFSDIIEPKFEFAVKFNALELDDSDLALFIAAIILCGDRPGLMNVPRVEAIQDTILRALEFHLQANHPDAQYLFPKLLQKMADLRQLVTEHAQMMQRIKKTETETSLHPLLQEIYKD", "assay": "PPAR receptor transactivation assay, human PPARδ", "format": "cell-based", "protocol": "Compound 1 was tested on all three human PPAR subtypes (hPPAR): hPPARα, hPPARγ, and hPPARδ. All assays were repeated at least three times for each subtype.\n(§1) The genes of interest were synthesized and cloned into an appropriate Jump-In™ retargeting vector following the User Guide of the Jump-In™ T-REx™ HEK293 Retargeting Kit (ThermoFisher Catalog No A15008). For example, the vector will be used to transfect and retarget the Jump-In™ HEK293 GripTite™ parental cell line. Stable pools will be antibiotic-selected for about 21 days and tested for target gene expression by functional assay.\n(§2) Jump-In™ GripTite™ HEK293 parental cells were plated at 60-80% confluency in a T-75 flask in growth medium without antibiotics and transfected with a 1:1 ratio of expression construct and R4 integrase expression construct (20 μg DNA total) using Lipofectamine® LTX (50 μL) and PLUS™ Reagent (20 μL). Following a 48 hours incubation, cells were selected with 600 μg/mL Geneticin® and 10 μg/mL Blasticidin for ˜21 days in growth medium.\n(§3) Jump-In™ GripTite™ HEK293 rPPAR Alpha, Delta or Gamma UAS-bla-Gal4 cell pools were plated in a 384-well plate format (20,000 cells per well) in OptiMeM without FBS in replicates (n=4). Cells were allowed to adhere for 8 hours before addition of Compound 1 (1 mM top concentration, 3-fold dilutions, 10-point titration). After 16 hours, the cells were loaded with LiveBLAzer®, a fluorescent BLA substrate that gives a blue/green readout of expressing/non-expressing cells, respectively. The blue/green readout was measured on a fluorescent plate reader (Tecan Safire II)."}, "PPARγ [1]": {"target": "T2, PPARγ (Macaca mulatta, UniProt O18924)", "T2 construct": "expressed in transfected cells; host or cells: Jump-In GripTite HEK293", "T2 sequence (O18924 238-503 limits assumed)": "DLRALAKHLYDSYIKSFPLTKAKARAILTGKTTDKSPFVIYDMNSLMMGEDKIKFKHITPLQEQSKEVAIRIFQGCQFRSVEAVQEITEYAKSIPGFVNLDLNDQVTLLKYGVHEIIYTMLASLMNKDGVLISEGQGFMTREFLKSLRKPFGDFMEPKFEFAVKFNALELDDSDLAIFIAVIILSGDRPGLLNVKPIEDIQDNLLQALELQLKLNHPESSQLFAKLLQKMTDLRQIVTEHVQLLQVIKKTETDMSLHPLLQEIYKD", "assay": "PPAR receptor transactivation assay, monkey PPARγ", "format": "cell-based", "protocol": "as §1, §2\nas §3, with “Cells were allowed to adhere for 8 hours before addition of Compound 1 (1 mM top concentration, 3-fold dilutions, 10-point titration).” left out"}, "PPARγ [2]": {"target": "T3, PPARγ (Mus musculus, UniProt P37238)", "T3 construct": "expressed in transfected cells; host or cells: Jump-In GripTite HEK293", "T3 sequence (P37238 238-503 limits assumed)": "T2 sequence (O18924 238-503 limits assumed) with S93N, V98I, S146N, L226V, Q245H", "assay": "PPAR receptor transactivation assay, mouse PPARγ", "format": "cell-based"}, "[3]": {"test_system": "human retinoid X receptor (hRXR)", "assay": "human retinoid X receptor activity", "format": "cell-based"}, "LXRβ": {"target": "T4, LXRβ (Homo sapiens, UniProt P55055)", "T4 sequence (P55055 1-460)": "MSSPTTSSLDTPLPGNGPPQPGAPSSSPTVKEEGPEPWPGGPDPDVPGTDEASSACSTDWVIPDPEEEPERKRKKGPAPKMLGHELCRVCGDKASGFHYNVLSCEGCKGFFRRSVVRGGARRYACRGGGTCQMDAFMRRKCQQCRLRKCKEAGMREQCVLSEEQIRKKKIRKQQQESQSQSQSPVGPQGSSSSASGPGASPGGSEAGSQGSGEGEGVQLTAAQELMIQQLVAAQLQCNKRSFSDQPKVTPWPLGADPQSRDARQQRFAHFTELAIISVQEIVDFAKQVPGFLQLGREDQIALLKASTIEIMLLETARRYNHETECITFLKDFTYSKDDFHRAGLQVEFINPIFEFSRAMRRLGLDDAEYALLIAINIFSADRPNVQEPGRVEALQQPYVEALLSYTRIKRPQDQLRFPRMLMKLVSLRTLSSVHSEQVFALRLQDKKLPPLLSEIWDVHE", "assay": "nuclear receptor LXRβ activity", "format": "cell-based"}, "human muscle cell lines": {"test_system": "human muscle cell lines", "assay": "fatty acid oxidation in human muscle cell line", "format": "cell-based", "conditions": "in vitro"}, "PGC1, CPT1b expression": {"test_system": "PGC1, CPT1b expression", "assay": "in vivo gene expression in mouse muscle, second study (time course)", "conditions": "male C57BL/6 mice, 30 mg/kg once daily, at 48 hrs", "protocol": "In a second study, male C57BL/6 mice were dosed once daily for four consecutive days. On the first day of treatment all mice in each group received a single dose of either the vehicle or Compound 1 at 30 mg/kg. Following the dose administration on the first day, five mice from each group were anesthetized and euthanized at each of the following time points: 1, 2, 4, 8, 24, 48, 72 and 96 hours. Animals left after the time point 24 hours received the second dose. Animals left after the time point 48 hours received the third dose. Animals left after the time point 72 hours received the fourth dose. Mice designated for time point 96 hours were euthanized on day 5."}, "[4]": {"test_system": "primary mitochondrial myopathy patients", "assay": "clinical trial for primary mitochondrial myopathy (PMM)", "format": "in vivo, human"}, "[5]": {"conditions": "PMM patients, 100 mg once daily for 12 weeks"}}, "note": "Residue numbers refer to the chain shown, from its start. “Also recorded” adds a separate entry of the source."}
{"compound": "Cc1cc(OC/C=C(/c2ccc(F)cc2)c2ccc(C#CCN3CCOCC3)cc2)ccc1OCC(=O)O", "note": "[Compound 1, (E)-[4-[3-(4-Fluorophenyl)-3-[4-[3-(morpholin-4-yl)propynyl]phenyl]allyloxy]-2-methyl-phenoxy]acetic acid]", "values": [{"measurement": "EC50", "setting": "hPPARδ; Human PPARδ", "value": 31, "unit": "nM"}, {"measurement": "selectivity for PPARδ over PPARα and PPARγ", "setting": "hPPARδ; in humans, monkey, and mouse", "value": "significantly greater selectivity"}, {"measurement": "agonist type at PPARδ", "setting": "hPPARδ; in some cases", "value": "full agonist"}, {"measurement": "EC50", "setting": "PPARγ [1]", "value": "> 1000", "unit": "nM"}, {"measurement": "EC50", "setting": "PPARγ [2]", "value": "> 10000", "unit": "nM"}, {"measurement": "hRXR activity", "setting": "[3]", "value": "did not show any"}, {"measurement": "activity on the nuclear receptor LXRβ", "setting": "LXRβ", "value": "did not show any"}, {"measurement": "fatty acid oxidation", "setting": "human muscle cell lines", "value": "dose-dependent increase"}, {"measurement": "expression of CPT1b", "setting": "PGC1, CPT1b expression", "value": "increased the expression"}, {"measurement": "expression of PGC1", "setting": "PGC1, CPT1b expression", "value": "increased the expression"}, {"measurement": "Modified Fatigue Impact Scale scores", "setting": "[4]; [5]", "value": "trends towards increases"}, {"measurement": "brief pain index (BPI) score, mean", "setting": "[4]; [5]", "value": "decreased"}, {"measurement": "distance walked during a 12-minute walk test", "setting": "[4]; [5]", "value": "increase the distance walked; also recorded: Improvements"}, {"measurement": "peak VO2", "setting": "[4]; [5]", "value": "trends towards increases"}, {"measurement": "tolerability", "setting": "[4]; PMM subjects that participated in the study", "value": "well tolerated"}]}
